Assay results: PubChem BioAssay (NCI)
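96-well plates; 48 h exposure; 5 concentrations. Endpoints by linear interpolation between flanking doses. Not reached: highest tested concentration assigned. TGI: concentration producing complete growth inhibition.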

How the values were obtained:
Experiment in all cases: NCI tumour cell line growth inhibition, 48 h
A498 renal = tested on: A498 renal
CAKI-1 renal = tested on: CAKI-1 renal
CCRF-CEM leukemia = tested on: CCRF-CEM leukemia
HCT-116 colon = tested on: HCT-116 colon
HS 578T breast = tested on: HS 578T breast
KM12 colon = tested on: KM12 colon
LOX IMVI melanoma = tested on: LOX IMVI melanoma
MDA-MB-231 breast = tested on: MDA-MB-231 breast
MDA-N = tested on: MDA-N
NCI-H226 lung = tested on: NCI-H226 lung
NCI/ADR-RES ovarian = tested on: NCI/ADR-RES ovarian
OVCAR-5 ovarian = tested on: OVCAR-5 ovarian
PC-3 prostate = tested on: PC-3 prostate
SF-268 CNS = tested on: SF-268 CNS
SNB-19 CNS = tested on: SNB-19 CNS
SR leukemia = tested on: SR leukemia

COc1ccc(-c2cc(-c3ccc(Nc4ccnc5cc(C(F)(F)F)ccc45)cc3)[nH]c(=O)c2C#N)cc1
TGI (A498 renal): > 55.1 µM
TGI (CAKI-1 renal): > 100 µM
TGI (CCRF-CEM leukemia): > 100 µM
TGI (HCT-116 colon): > 100 µM
TGI (HS 578T breast): 49.6 µM
TGI (KM12 colon): > 100 µM
TGI (LOX IMVI melanoma): > 100 µM
TGI (MDA-MB-231 breast): > 82.9 µM
TGI (MDA-N): 98.5 µM
TGI (NCI-H226 lung): > 70.9 µM
TGI (NCI/ADR-RES ovarian): > 100 µM
TGI (OVCAR-5 ovarian): > 100 µM
TGI (PC-3 prostate): > 100 µM
TGI (SF-268 CNS): > 88.6 µM
TGI (SNB-19 CNS): 56.7 µM
TGI (SR leukemia): > 100 µM

O=C(O)[C@H]1NC[C@@H]2ON=C(Br)[C@@H]21
TGI (A498 renal): > 100 µM
TGI (CAKI-1 renal): > 100 µM
TGI (CCRF-CEM leukemia): > 100 µM
TGI (HCT-116 colon): > 100 µM
TGI (HS 578T breast): > 100 µM
TGI (KM12 colon): > 100 µM
TGI (LOX IMVI melanoma): > 100 µM
TGI (MDA-MB-231 breast): > 100 µM
TGI (MDA-N): > 100 µM
TGI (NCI-H226 lung): > 100 µM
TGI (NCI/ADR-RES ovarian): > 100 µM
TGI (OVCAR-5 ovarian): > 100 µM
TGI (PC-3 prostate): > 100 µM
TGI (SF-268 CNS): > 100 µM
TGI (SNB-19 CNS): > 100 µM
TGI (SR leukemia): > 100 µM

CS(=O)(=O)OC1CCN(C2(c3cccc(O)c3)CCCCC2)CC1
TGI (A498 renal): > 100 µM
TGI (CAKI-1 renal): > 100 µM
TGI (CCRF-CEM leukemia): 60.5 µM
TGI (HCT-116 colon): > 100 µM
TGI (HS 578T breast): > 100 µM
TGI (KM12 colon): > 100 µM
TGI (LOX IMVI melanoma): 51.8 µM
TGI (MDA-MB-231 breast): > 100 µM
TGI (MDA-N): > 100 µM
TGI (NCI-H226 lung): > 100 µM
TGI (NCI/ADR-RES ovarian): > 100 µM
TGI (OVCAR-5 ovarian): > 100 µM
TGI (PC-3 prostate): > 100 µM
TGI (SF-268 CNS): > 100 µM
TGI (SNB-19 CNS): > 100 µM
TGI (SR leukemia): 49.4 µM

CC1=NN(c2cccc(Cl)c2)C2(C1)SCC(=O)N2c1nc2ccccc2s1 (configuration not stated)
TGI (A498 renal): 89.8 µM
TGI (CAKI-1 renal): > 100 µM
TGI (CCRF-CEM leukemia): 62.6 µM
TGI (HCT-116 colon): 36.7 µM
TGI (HS 578T breast): > 100 µM
TGI (KM12 colon): 69.2 µM
TGI (LOX IMVI melanoma): 41.6 µM
TGI (MDA-MB-231 breast): 40.3 µM
TGI (MDA-N): > 100 µM
TGI (NCI-H226 lung): 37.1 µM
TGI (NCI/ADR-RES ovarian): > 100 µM
TGI (OVCAR-5 ovarian): > 100 µM
TGI (PC-3 prostate): 65.1 µM
TGI (SF-268 CNS): > 100 µM
TGI (SNB-19 CNS): > 100 µM
TGI (SR leukemia): 37.8 µM

S=C1NC2=C(COC/C2=C\c2ccccc2Cl)C(c2ccccc2Cl)N1 (configuration not stated)
TGI (A498 renal): > 100 µM
TGI (CAKI-1 renal): > 100 µM
TGI (CCRF-CEM leukemia): 45.1 µM
TGI (HCT-116 colon): 80.6 µM
TGI (HS 578T breast): > 100 µM
TGI (KM12 colon): 28.6 µM
TGI (LOX IMVI melanoma): 70.7 µM
TGI (MDA-MB-231 breast): > 100 µM
TGI (MDA-N): > 100 µM
TGI (NCI-H226 lung): > 100 µM
TGI (NCI/ADR-RES ovarian): > 100 µM
TGI (OVCAR-5 ovarian): > 100 µM
TGI (PC-3 prostate): > 100 µM
TGI (SF-268 CNS): > 100 µM
TGI (SNB-19 CNS): > 100 µM
TGI (SR leukemia): 20.9 µM

CCOc1ccc(C(c2c(O)c3ccccc3oc2=O)c2c(O)c3ccccc3oc2=O)cc1
TGI (A498 renal): > 100 µM
TGI (CAKI-1 renal): > 100 µM
TGI (CCRF-CEM leukemia): > 100 µM
TGI (HCT-116 colon): > 100 µM
TGI (HS 578T breast): > 100 µM
TGI (KM12 colon): > 100 µM
TGI (LOX IMVI melanoma): > 100 µM
TGI (MDA-MB-231 breast): > 100 µM
TGI (MDA-N): > 100 µM
TGI (NCI-H226 lung): > 100 µM
TGI (NCI/ADR-RES ovarian): > 100 µM
TGI (OVCAR-5 ovarian): > 100 µM
TGI (PC-3 prostate): 84.3 µM
TGI (SF-268 CNS): > 100 µM
TGI (SNB-19 CNS): > 100 µM
TGI (SR leukemia): 58.7 µM

O=C(OCc1c(-c2ccccc2)nn(-c2ccccc2)c1COC(=O)Oc1ccccc1)Oc1ccccc1
TGI (A498 renal): > 100 µM
TGI (CAKI-1 renal): > 100 µM
TGI (CCRF-CEM leukemia): > 100 µM
TGI (HCT-116 colon): > 100 µM
TGI (HS 578T breast): > 100 µM
TGI (KM12 colon): > 100 µM
TGI (LOX IMVI melanoma): > 100 µM
TGI (MDA-MB-231 breast): > 100 µM
TGI (MDA-N): > 100 µM
TGI (NCI-H226 lung): > 100 µM
TGI (NCI/ADR-RES ovarian): > 100 µM
TGI (OVCAR-5 ovarian): > 100 µM
TGI (PC-3 prostate): > 100 µM
TGI (SF-268 CNS): > 100 µM
TGI (SNB-19 CNS): > 100 µM
TGI (SR leukemia): > 100 µM
